Experimental data reported in ChEMBL document CHEMBL1201862, “PubChem BioAssay data set” (2004).
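Tested at 5 concentrations; 48 h exposure; 96-well plates; endpoints linearly interpolated, else capped at highest concentration. Abbreviation: GI50, concentration required for 50% inhibition of growth.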 The source made the active and inactive calls. No stated cut-off is given here; in the data, active = GI50 up to about 1.1 µM and inactive = higher.

How the values were obtained:
Test in all cases: DTP human tumour cell line panel, 48 h
[1] = system: 786-0
[2] = system: A498
[3] = system: A549
[4] = system: ACHN
[5] = system: CAKI-1
[6] = system: CCRF-CEM
[7] = system: COLO 205
[8] = system: DLD-1
[9] = system: DMS-114
[10] = system: DMS-273
[11] = system: EKVX
[12] = system: HCC 2998
[13] = system: HCT-116
[14] = system: HCT-15
[15] = system: HL-60
[16] = system: HOP-18
[17] = system: HOP-62
[18] = system: HOP-92
[19] = system: HT-29
[20] = system: IGROV-1
[21] = system: K562
[22] = system: KM-20L2
[23] = system: KM12
[24] = system: LOX IMVI
[25] = system: LXFL 529
[26] = system: M14
[27] = system: M19-MEL
[28] = system: MOLT-4
[29] = system: Malme-3M
[30] = system: NCI-H226
[31] = system: NCI-H23
[32] = system: NCI-H460
[33] = system: NCI-H522
[34] = system: OVCAR-3
[35] = system: OVCAR-4
[36] = system: OVCAR-5
[37] = system: OVCAR-8
[38] = system: RPMI-8226
[39] = system: SF-268
[40] = system: SF-295
[41] = system: SF-539
[42] = system: SK-MEL-28
[43] = system: SK-MEL-2
[44] = system: SK-MEL-5
[45] = system: SK-OV-3
[46] = system: SN12C
[47] = system: SNB-19
[48] = system: SNB-75
[49] = system: SW-620
[50] = system: TK-10
[51] = system: U-251
[52] = system: UACC-62
[53] = system: XF498
[54] = system: RXF 393
[55] = system: SR
[56] = system: UACC-257
[57] = system: UO-31
[58] = system: SNB-78

Measured: GI50

CCOC(=O)C1(C(=O)OCC)CC=C(C)CC12C(=O)Nc1ccccc12 (stereo unspecified)
inactive: [1] > 100 µM | [2] > 100 µM | [3] > 100 µM | [4] > 100 µM | [5] > 100 µM | [6] > 100 µM | [7] > 100 µM | [8] > 100 µM | [9] > 100 µM | [10] > 100 µM | [11] > 100 µM | [12] > 100 µM | [13] > 100 µM | [15] > 100 µM | [16] > 100 µM | [17] > 100 µM | [18] > 100 µM | [19] > 100 µM | [20] > 100 µM | [21] > 100 µM | [22] > 100 µM | [23] > 100 µM | [24] > 100 µM | [25] > 100 µM | [26] > 100 µM | [27] > 100 µM | [28] > 100 µM | [29] > 100 µM | [30] > 100 µM | [31] > 100 µM | [32] > 100 µM | [33] > 100 µM | [34] > 100 µM | [35] > 100 µM | [36] > 100 µM | [37] > 100 µM | [38] > 100 µM | [39] > 100 µM | [40] > 100 µM | [41] > 100 µM | [42] > 100 µM | [43] > 100 µM | [44] > 100 µM | [45] > 100 µM | [46] > 100 µM | [47] > 100 µM | [48] > 100 µM | [49] > 100 µM | [50] > 100 µM | [51] > 100 µM | [52] > 100 µM | [53] > 100 µM
> 100 µM: [14]

COc1ccc(N2C(Cl)C(=O)C2c2c[nH]c3ccccc23)cc1 (stereo unspecified)
inactive: [3] > 100 µM | [6] > 100 µM | [7] > 100 µM | [9] > 100 µM | [11] > 100 µM | [13] > 100 µM | [15] > 100 µM | [17] > 100 µM | [18] 28.3 µM | [19] > 100 µM | [20] > 100 µM | [21] 94.8 µM | [22] > 100 µM | [23] > 100 µM | [25] > 100 µM | [26] > 100 µM | [27] > 100 µM | [28] > 100 µM | [29] 72.6 µM | [31] > 100 µM | [32] > 100 µM | [33] > 100 µM | [34] > 100 µM | [35] > 100 µM | [36] 80.9 µM | [37] > 100 µM | [38] > 100 µM | [54] > 100 µM | [39] > 100 µM | [40] > 100 µM | [41] > 100 µM | [42] > 100 µM | [43] > 100 µM | [44] > 100 µM | [45] > 100 µM | [46] > 100 µM | [47] 91.8 µM | [48] > 100 µM | [55] > 100 µM | [49] > 100 µM | [50] > 100 µM | [51] > 100 µM | [56] > 100 µM | [52] > 100 µM | [57] 51.9 µM | [53] > 100 µM

O=c1c2ccccc2nc(-c2ccccc2)n1NCC1(O)OCC(O)C(O)C1O (stereo unspecified)
> 100 µM: [14]
inactive: [1] > 100 µM | [2] > 100 µM | [3] 81.3 µM | [4] 95.7 µM | [5] 47.3 µM | [6] 33.1 µM | [7] > 100 µM | [8] > 100 µM | [9] > 100 µM | [10] 60.5 µM | [11] > 100 µM | [12] > 100 µM | [13] > 100 µM | [15] 33 µM | [16] > 100 µM | [17] > 100 µM | [18] > 100 µM | [19] > 100 µM | [20] > 100 µM | [21] > 100 µM | [22] > 100 µM | [23] > 100 µM | [25] > 100 µM | [26] > 100 µM | [27] 49.8 µM | [28] 14 µM | [29] > 100 µM | [30] > 100 µM | [31] > 100 µM | [32] 30.1 µM | [33] > 100 µM | [34] > 100 µM | [35] > 100 µM | [36] > 100 µM | [37] > 100 µM | [38] 52.7 µM | [39] > 100 µM | [40] 49.2 µM | [41] > 100 µM | [42] > 100 µM | [43] > 100 µM | [44] 48 µM | [45] > 100 µM | [46] > 100 µM | [47] > 100 µM | [48] 50 µM | [58] > 100 µM | [49] 87.5 µM | [50] > 100 µM | [51] 87.3 µM | [56] > 100 µM | [52] > 100 µM | [57] > 100 µM

c1ccc(C2=NOC3C4CCC(C4)C23)cc1 (stereo unspecified)
> 100 µM: [14]
active: [5] < 0.01 µM
inactive: [1] > 100 µM | [2] > 100 µM | [3] > 100 µM | [4] > 100 µM | [6] > 100 µM | [7] > 100 µM | [8] > 100 µM | [9] > 100 µM | [10] > 100 µM | [11] > 100 µM | [12] > 100 µM | [13] > 100 µM | [15] > 100 µM | [16] > 100 µM | [17] > 100 µM | [18] > 100 µM | [19] > 100 µM | [20] > 100 µM | [21] > 100 µM | [23] > 100 µM | [25] > 100 µM | [26] > 100 µM | [27] > 100 µM | [28] > 100 µM | [29] > 100 µM | [30] > 100 µM | [31] > 100 µM | [32] > 100 µM | [33] > 100 µM | [34] > 100 µM | [35] > 100 µM | [36] > 100 µM | [37] > 100 µM | [38] > 100 µM | [39] > 100 µM | [40] > 100 µM | [41] > 100 µM | [42] > 100 µM | [43] > 100 µM | [44] > 100 µM | [45] > 100 µM | [46] > 100 µM | [47] > 100 µM | [48] > 100 µM | [58] > 100 µM | [55] > 100 µM | [49] > 100 µM | [50] > 100 µM | [51] > 100 µM | [56] > 100 µM | [52] > 100 µM | [57] > 100 µM

ClC1c2ccccc2C2(c3ccccc3)OOC1(c1ccccc1)O2 (stereo unspecified)
1.53 µM: [14]
inactive: [1] 1.61 µM | [2] 2.39 µM | [3] 1.86 µM | [4] 1.55 µM | [5] 2.37 µM | [7] 1.87 µM | [10] 1.52 µM | [11] 2.18 µM | [12] 2.34 µM | [17] 10.3 µM | [19] 2 µM | [21] 1.38 µM | [22] 1.68 µM | [23] 1.77 µM | [26] 1.45 µM | [28] 1.26 µM | [29] 2.63 µM | [30] 2.32 µM | [31] 1.8 µM | [32] 1.64 µM | [34] 1.77 µM | [35] 1.48 µM | [36] 4.24 µM | [37] 2.03 µM | [54] 1.4 µM | [39] 1.97 µM | [40] 2.62 µM | [41] 2.31 µM | [42] 1.95 µM | [43] 1.94 µM | [44] 1.51 µM | [46] 1.48 µM | [47] 1.7 µM | [48] 1.77 µM | [58] 1.45 µM | [55] 1.32 µM | [49] 1.39 µM | [50] 2.58 µM | [51] 1.9 µM | [56] 1.99 µM | [52] 1.87 µM | [57] 1.69 µM
active: [9] 0.267 µM | [15] 0.136 µM | [18] 0.39 µM | [24] 0.352 µM | [33] 0.243 µM | [38] 0.716 µM
